Test results reported in ChEMBL document CHEMBL1201862, “PubChem BioAssay data set” (2004).
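Assay format: 96-well plates, 48-hour exposure. The concentration for 50% growth inhibition is given as GI50.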 Activity calls are given as the source filed them. Cut-off read from the data, not from the text of the source: active = GI50 up to about 1.1 µM and inactive = higher.

Key:
Experiment in all cases: NCI-60 cell line screen, 48 h
SN12C = system: SN12C
NCI-H226 = system: NCI-H226
RXF 631 = system: RXF 631
OVCAR-4 = system: OVCAR-4
UO-31 = system: UO-31
HCT-116 = system: HCT-116
XF498 = system: XF498
SR = system: SR
MOLT-4 = system: MOLT-4
IGROV-1 = system: IGROV-1
SF-539 = system: SF-539
SF-295 = system: SF-295
ACHN = system: ACHN
M19-MEL = system: M19-MEL
LXFL 529 = system: LXFL 529
SW-620 = system: SW-620
NCI-H23 = system: NCI-H23
HCC 2998 = system: HCC 2998
HOP-62 = system: HOP-62
SNB-75 = system: SNB-75
UACC-62 = system: UACC-62
HT-29 = system: HT-29
SK-OV-3 = system: SK-OV-3
NCI-H522 = system: NCI-H522
DMS-273 = system: DMS-273
SNB-19 = system: SNB-19
COLO 205 = system: COLO 205
U-251 = system: U-251
CAKI-1 = system: CAKI-1
NCI-H460 = system: NCI-H460
M14 = system: M14
K562 = system: K562
OVCAR-3 = system: OVCAR-3
SK-MEL-28 = system: SK-MEL-28
A549 = system: A549
Malme-3M = system: Malme-3M
LOX IMVI = system: LOX IMVI
SK-MEL-5 = system: SK-MEL-5
786-0 = system: 786-0
A498 = system: A498
SNB-78 = system: SNB-78
DMS-114 = system: DMS-114
HCT-15 = system: HCT-15
RPMI-8226 = system: RPMI-8226
SK-MEL-2 = system: SK-MEL-2
OVCAR-8 = system: OVCAR-8
UACC-257 = system: UACC-257
RXF 393 = system: RXF 393
SF-268 = system: SF-268
HL-60 = system: HL-60
KM12 = system: KM12
TK-10 = system: TK-10
CCRF-CEM = system: CCRF-CEM
EKVX = system: EKVX
KM-20L2 = system: KM-20L2
HOP-92 = system: HOP-92
OVCAR-5 = system: OVCAR-5
HOP-18 = system: HOP-18
DLD-1 = system: DLD-1

**Q.** Cc1cc2c(cc1C)[n+]([O-])c(C(=O)CC(=O)C(=O)Nc1ccccc1C(C)C)c(C)[n+]2[O-] was tested. Which GI50 (SN12C) did it give?
**A.** > 100 µM (inactive)

**Q.** And the GI50 (NCI-H226)?
**A.** > 100 µM (inactive)

**Q.** What about the GI50 (RXF 631) of the same compound?
**A.** > 100 µM (inactive)

**Q.** What about the GI50 (OVCAR-4) of the same compound?
**A.** > 100 µM (inactive)

**Q.** And the GI50 (UO-31)?
**A.** > 100 µM (inactive)

**Q.** What about the GI50 (HCT-116) of the same compound?
**A.** > 100 µM (inactive)

**Q.** What about the GI50 (XF498) of the same compound?
**A.** > 100 µM (inactive)

**Q.** What about the GI50 (SR) of the same compound?
**A.** > 100 µM (inactive)

**Q.** What about the GI50 (MOLT-4) of the same compound?
**A.** > 100 µM (inactive)

**Q.** And the GI50 (IGROV-1)?
**A.** > 100 µM (inactive)

**Q.** And the GI50 (SF-539)?
**A.** > 100 µM (inactive)

**Q.** And the GI50 (SF-295)?
**A.** > 100 µM (inactive)

**Q.** And the GI50 (ACHN)?
**A.** > 100 µM (inactive)

**Q.** And the GI50 (M19-MEL)?
**A.** > 100 µM (inactive)

**Q.** And the GI50 (LXFL 529)?
**A.** > 100 µM (inactive)

**Q.** What about the GI50 (SW-620) of the same compound?
**A.** > 100 µM (inactive)

**Q.** What about the GI50 (NCI-H23) of the same compound?
**A.** > 100 µM (inactive)

**Q.** What about the GI50 (HCC 2998) of the same compound?
**A.** > 100 µM (inactive)

**Q.** And the GI50 (HOP-62)?
**A.** > 100 µM (inactive)

**Q.** And the GI50 (SNB-75)?
**A.** > 100 µM (inactive)

**Q.** What about the GI50 (UACC-62) of the same compound?
**A.** > 100 µM (inactive)

**Q.** What about the GI50 (HT-29) of the same compound?
**A.** > 100 µM (inactive)

**Q.** What about the GI50 (SK-OV-3) of the same compound?
**A.** > 100 µM (inactive)

**Q.** What about the GI50 (NCI-H522) of the same compound?
**A.** > 100 µM (inactive)

**Q.** And the GI50 (DMS-273)?
**A.** > 100 µM (inactive)

**Q.** What about the GI50 (SNB-19) of the same compound?
**A.** > 100 µM (inactive)

**Q.** What about the GI50 (COLO 205) of the same compound?
**A.** > 100 µM (inactive)

**Q.** And the GI50 (U-251)?
**A.** > 100 µM (inactive)

**Q.** What about the GI50 (CAKI-1) of the same compound?
**A.** > 100 µM (inactive)

**Q.** What about the GI50 (NCI-H460) of the same compound?
**A.** > 100 µM (inactive)

**Q.** And the GI50 (M14)?
**A.** > 100 µM (inactive)

**Q.** And the GI50 (K562)?
**A.** > 100 µM (inactive)

**Q.** And the GI50 (OVCAR-3)?
**A.** > 100 µM (inactive)

**Q.** And the GI50 (SK-MEL-28)?
**A.** > 100 µM (inactive)

**Q.** And the GI50 (A549)?
**A.** > 100 µM (inactive)

**Q.** And the GI50 (Malme-3M)?
**A.** > 100 µM (inactive)

**Q.** What about the GI50 (LOX IMVI) of the same compound?
**A.** > 100 µM (inactive)

**Q.** And the GI50 (SK-MEL-5)?
**A.** > 100 µM (inactive)

**Q.** And the GI50 (786-0)?
**A.** > 100 µM (inactive)

**Q.** What about the GI50 (A498) of the same compound?
**A.** > 100 µM (inactive)

**Q.** What about the GI50 (SNB-78) of the same compound?
**A.** > 100 µM (inactive)

**Q.** And the GI50 (DMS-114)?
**A.** > 100 µM (inactive)

**Q.** And the GI50 (HCT-15)?
**A.** > 100 µM

**Q.** What about the GI50 (RPMI-8226) of the same compound?
**A.** > 100 µM (inactive)

**Q.** And the GI50 (SK-MEL-2)?
**A.** > 100 µM (inactive)

**Q.** What about the GI50 (OVCAR-8) of the same compound?
**A.** > 100 µM (inactive)

**Q.** What about the GI50 (UACC-257) of the same compound?
**A.** 1.08 µM (active)

**Q.** And the GI50 (RXF 393)?
**A.** > 100 µM (inactive)

**Q.** And the GI50 (SF-268)?
**A.** > 100 µM (inactive)

**Q.** What about the GI50 (HL-60) of the same compound?
**A.** > 100 µM (inactive)

**Q.** And the GI50 (KM12)?
**A.** > 100 µM (inactive)

**Q.** What about the GI50 (TK-10) of the same compound?
**A.** 25.5 µM (inactive)

**Q.** What about the GI50 (CCRF-CEM) of the same compound?
**A.** > 100 µM (inactive)

**Q.** What about the GI50 (EKVX) of the same compound?
**A.** > 100 µM (inactive)

**Q.** What about the GI50 (KM-20L2) of the same compound?
**A.** > 100 µM (inactive)

**Q.** And the GI50 (HOP-92)?
**A.** > 100 µM (inactive)

**Q.** What about the GI50 (OVCAR-5) of the same compound?
**A.** > 100 µM (inactive)

**Q.** How did the GI50 (SN12C) turn out when CCOC(=O)Nc1ccc(S(=O)(=O)OC)cc1.CCOC(=O)Nc1ccc(S(=O)(=O)OC)cc1.NNC(=O)c1ccncc1 was run?
**A.** > 50 µM (inactive)

**Q.** And the GI50 (NCI-H226)?
**A.** > 50 µM (inactive)

**Q.** And the GI50 (RXF 631)?
**A.** > 50 µM (inactive)

**Q.** What about the GI50 (OVCAR-4) of the same compound?
**A.** > 50 µM (inactive)

**Q.** What about the GI50 (UO-31) of the same compound?
**A.** > 50 µM (inactive)

**Q.** And the GI50 (HCT-116)?
**A.** 14.3 µM (inactive)

**Q.** What about the GI50 (MOLT-4) of the same compound?
**A.** > 50 µM (inactive)

**Q.** What about the GI50 (HOP-18) of the same compound?
**A.** > 50 µM (inactive)

**Q.** And the GI50 (IGROV-1)?
**A.** > 50 µM (inactive)

**Q.** And the GI50 (SF-539)?
**A.** > 50 µM (inactive)

**Q.** What about the GI50 (SF-295) of the same compound?
**A.** > 50 µM (inactive)

**Q.** What about the GI50 (ACHN) of the same compound?
**A.** > 50 µM (inactive)

**Q.** And the GI50 (M19-MEL)?
**A.** > 50 µM (inactive)

**Q.** What about the GI50 (LXFL 529) of the same compound?
**A.** > 50 µM (inactive)

**Q.** And the GI50 (SW-620)?
**A.** 12.1 µM (inactive)

**Q.** What about the GI50 (NCI-H23) of the same compound?
**A.** > 50 µM (inactive)

**Q.** What about the GI50 (HCC 2998) of the same compound?
**A.** > 50 µM (inactive)

**Q.** And the GI50 (HOP-62)?
**A.** > 50 µM (inactive)

**Q.** And the GI50 (SNB-75)?
**A.** > 50 µM (inactive)

**Q.** And the GI50 (UACC-62)?
**A.** > 50 µM (inactive)

**Q.** What about the GI50 (HT-29) of the same compound?
**A.** 44.7 µM (inactive)

**Q.** And the GI50 (SK-OV-3)?
**A.** > 50 µM (inactive)

**Q.** And the GI50 (DMS-273)?
**A.** > 50 µM (inactive)

**Q.** And the GI50 (SNB-19)?
**A.** > 50 µM (inactive)

**Q.** What about the GI50 (COLO 205) of the same compound?
**A.** > 50 µM (inactive)

**Q.** And the GI50 (U-251)?
**A.** 11.1 µM (inactive)

**Q.** And the GI50 (CAKI-1)?
**A.** > 50 µM (inactive)

**Q.** And the GI50 (NCI-H460)?
**A.** > 50 µM (inactive)

**Q.** What about the GI50 (M14) of the same compound?
**A.** > 50 µM (inactive)

**Q.** And the GI50 (K562)?
**A.** 40.2 µM (inactive)

**Q.** What about the GI50 (OVCAR-3) of the same compound?
**A.** > 50 µM (inactive)

**Q.** What about the GI50 (SK-MEL-28) of the same compound?
**A.** > 50 µM (inactive)

**Q.** What about the GI50 (DLD-1) of the same compound?
**A.** 9.04 µM (inactive)

**Q.** What about the GI50 (A549) of the same compound?
**A.** > 50 µM (inactive)

**Q.** What about the GI50 (Malme-3M) of the same compound?
**A.** > 50 µM (inactive)

**Q.** What about the GI50 (LOX IMVI) of the same compound?
**A.** > 50 µM (inactive)

**Q.** And the GI50 (SK-MEL-5)?
**A.** > 50 µM (inactive)

**Q.** What about the GI50 (786-0) of the same compound?
**A.** > 50 µM (inactive)

**Q.** And the GI50 (A498)?
**A.** > 50 µM (inactive)

**Q.** And the GI50 (SNB-78)?
**A.** > 50 µM (inactive)

**Q.** And the GI50 (DMS-114)?
**A.** > 50 µM (inactive)

**Q.** And the GI50 (HCT-15)?
**A.** > 50 µM

**Q.** What about the GI50 (RPMI-8226) of the same compound?
**A.** 14.6 µM (inactive)

**Q.** What about the GI50 (SK-MEL-2) of the same compound?
**A.** > 50 µM (inactive)

**Q.** What about the GI50 (OVCAR-8) of the same compound?
**A.** > 50 µM (inactive)

**Q.** And the GI50 (UACC-257)?
**A.** > 50 µM (inactive)

**Q.** And the GI50 (SF-268)?
**A.** > 50 µM (inactive)

**Q.** And the GI50 (HL-60)?
**A.** > 50 µM (inactive)

**Q.** What about the GI50 (KM12) of the same compound?
**A.** > 50 µM (inactive)

**Q.** And the GI50 (TK-10)?
**A.** > 50 µM (inactive)

**Q.** What about the GI50 (CCRF-CEM) of the same compound?
**A.** 9.08 µM (inactive)

**Q.** What about the GI50 (EKVX) of the same compound?
**A.** > 50 µM (inactive)

**Q.** And the GI50 (KM-20L2)?
**A.** > 50 µM (inactive)

**Q.** And the GI50 (HOP-92)?
**A.** > 50 µM (inactive)

**Q.** And the GI50 (OVCAR-5)?
**A.** > 50 µM (inactive)
